Data on one molecule can be found in paper PMC9981671, “rRNA methylation by Spb1 regulates the GTPase activity of Nog2 during 60S ribosomal subunit assembly” (Nature Communications, 2023).

For this test, the target named is Nog2 (Saccharomyces cerevisiae, UniProt P53742). Nature of the test: cryo-EM structure of native pre-60S particle, […] A. It is filed as binding. The conditions noted are these: Nog2pre from spb1 D52A strain (unmethylated G2922); GTPase site with Mg2+ and K+; pH 8.0; also Nog2post (7UUI) and Nog2pre from spb1 D52A/E769K strain (7V08).
Sequence of Nog2 (P53742 whole entry): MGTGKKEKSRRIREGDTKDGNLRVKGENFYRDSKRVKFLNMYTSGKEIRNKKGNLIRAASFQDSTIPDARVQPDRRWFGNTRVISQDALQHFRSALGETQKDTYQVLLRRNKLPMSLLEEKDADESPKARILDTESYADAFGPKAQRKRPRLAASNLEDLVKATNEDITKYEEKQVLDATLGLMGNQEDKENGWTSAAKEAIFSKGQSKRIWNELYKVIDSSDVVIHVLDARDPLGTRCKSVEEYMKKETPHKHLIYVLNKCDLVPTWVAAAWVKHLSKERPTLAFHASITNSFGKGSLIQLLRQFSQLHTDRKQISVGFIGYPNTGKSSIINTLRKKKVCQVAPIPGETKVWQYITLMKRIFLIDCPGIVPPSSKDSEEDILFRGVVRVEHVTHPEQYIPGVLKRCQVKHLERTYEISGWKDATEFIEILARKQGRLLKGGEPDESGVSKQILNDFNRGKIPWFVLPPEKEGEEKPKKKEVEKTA

`Nc1nc2c(ncn2[C@@H]2O[C@H](COP(=O)(O)OP(=O)(O)O)[C@@H](O)[C@H]2O)c(=O)[nH]1` [GDP]: the “cryo-EM structure of native pre-60S particle, 2.4 A” value is “GTP hydrolysis has taken place and that GDP occupies the Nog2 active site”.
